In patent US20190262371A1, “METHODS AND COMPOSITION FOR THE TREATMENT OF RNA VIRAL INFECTIONS” (The Regents of the University of California, priority 2016, published 2019):

Tested on: ZIKV (MR766)
Test: Inhibitor activity analysis: effect of methyltransferase inhibitors on ZIKV replication in a microglial cell line (supernatant one-step qRT-PCR)
Type: cell-based, ZIKA virus
Settings: assay not given, presumably ZIKV inhibition, 10 μM, MOI 1, 24 h / 48 h, normalized to DMSO
Description: FIG. 7. Microglial cell-line was plated 1×10^6 cells per well in 24 well plate and cultured for 24 h. Cell were then treated in triplicate with series of methyltransferase inhibitors ([…]) for one hour followed by infection with ZIKV (MR766, MOI: 1) and changed the fresh medium after 2 hrs of ZIKV infection and re-added the drugs. After 24 h of the infection, we collected the supernatant and did one-step qRT-PCR. Fold inhibition of ZIKV infection was normalized from DMSO control.
FIG. 8. Microglial cell-line was plated 1×10^6 cells per well in 24 well plate and cultured for 24 h. […]
Effects of methyltransferase inhibitors on ZIKV replication was monitored using previously published methods (Dang, J., Tiwari, S. K., Lichinchi, G., Qin, Y., Patil, V. S., Eroshkin, A. M., and Rana, T. M. (2016); Zika Virus Depletes Neural Progenitors in Human Cerebral Organoids through Activation of the Innate Immune Receptor TLR3. Cell Stem Cell 19, 258-265; Lichinchi, G., Zhao, B. S., Wu, Y., Lu, Z., Qin, Y., He, C., and Rana, T. M. (2016). Dynamics of Human and Viral RNA Methylation during Zika Virus Infection. Cell Host Microbe 20, 666-673; Tiwari, S. K., Dang, J., Qin, Y., Lichinchi, G., Bansal, V., and Rana, T. M. (2017), which are incorporated herein in their entirety for all purposes). […]

Nc1ncnc2c1ncn2C1OC(CNCCn2c3ccccc3c3ccccc32)C(O)C1O (stereo not shown) [TR-H-08]
activity (found to be an active compound): active
